“Also recorded” adds a separate entry of the source.
Legend:
Caco-2 monolayers [1] = assay: TEER in Caco-2 monolayers; format: cell-based; details: sodium salts at concentrations of Table 1, with 3H-TRH, over 2 hours
Description: (§1) Cell Culture: Caco-2 cells were cultured in Dulbecco's Modified Eagles Medium (DMEM) 4.5 g/L glucose supplemented with 1% (v/v) non-essential amino acids; 10% fetal calf serum and 1% penicillin/streptomycin. […] The cells were grown and expanded in standard tissue culture flasks and were passaged once they attained 100% confluence. The Caco-2 cells were then seeded on polycarbonate filter inserts (Costar; 12 mm diameter, 0.4 μm pore size) at a density of 5×10^5 cells/cm^2 and incubated in six well culture plates with a medium change every second day. Confluent monolayers between day 20 and day 30 seeding on filters and at passages 30-40 were used throughout these studies.
(§2) The transport experiments were performed in Hank's Balanced Salt Solution (HBSS) containing 25 mM N-[2-hydroxyethyl]-piperazine-N′-[2-ethanesulfonic acid] (HEPES) buffer, pH 7.4 at 37° C. Due to variations in solubilities, various concentrations of the different MCFA sodium salts and various apical buffers were used as shown in Table 1. In all cases the basolateral chamber contained regular HBSS+HEPES.
(§3) After removing the cell culture medium, the monolayers were placed in wells containing pre-warmed HBSS (37° C.); 1 ml apically and 2 ml basolaterally. Monolayers were incubated at 37° C. for 30 minutes. Then at time zero, apical HBSS was replaced with the relevant apical test solution containing the radio-labeled compounds with and without the enhancer compound. […] The plates were placed on an orbital shaker in an incubator (37° C.). […] At each 30-minute interval, each insert was transferred to a new well containing 2 ml fresh pre-warmed HBSS. […] Mean values for ^3H-TRH concentrations were calculated for the apical and basolateral solutions at each time point.

Caco-2 monolayers [2] = assay: 3H-TRH transepithelial transport (Papp) in Caco-2 monolayers; format: in vitro ADME; details: sodium salts at concentrations of Table 1
Description: as §1, §2, §3

[3] = Closed loop rat model, intraduodenal TRH with enhancer, serum TRH; format: in vivo, Male Wistar rats; details: intraduodenal bolus 500 or 1000 μg TRH with 35 mg enhancer
Description: Male Wistar rats (weight range 250 g-350 g) were anaesthetized with ketamine hydrochloride/acepromazine. […] All intraduodenal dose volumes (for samples and control) were 1 ml/kg. The proximal end of the segment was ligated, and the loop was sprayed with isotonic saline (37° C.) to provide moisture and then replaced in the abdominal cavity avoiding distension. The incision was closed with surgical clips. A group of animals were administered TRH in PBS (100 μg in 0.2 ml) by subcutaneous injection as a reference.

[4] = Closed-loop rat segment, intraileal USP heparin, APTT response; format: in vivo; details: USP heparin 1000 iu intraileal, sodium caprate 10 and 35 mg
Source text: APTT measurements were taken at various time points.

anti-factor Xa activity [5] = assay: Closed-loop rat segment, intraileal USP heparin, anti-factor Xa response; format: in vivo; details: USP heparin 1000 iu
anti-factor Xa activity [6] = assay: Dog study of oral heparin tablets, anti-factor Xa; format: in vivo; details: IR formulations, equivalent dose of heparin, dogs
Description: Tablets from batches 3, 7 and 15 in Tables 5 and 6 above were dosed orally to groups of five dogs in a single dose crossover study. […] Blood samples for anti-factor Xa analysis were collected from the jugular vein at various time points.

[7] = dog, in vivo
Description: Beagle dogs (10-15 Kg) were sedated with medetomidine (80 μg/kg) and an endoscope was inserted via the mouth, esophagus, and stomach into the duodenum. The test solutions (10 ml) comprising leuprolide acetate (Mallinckrodt Inc, St. Louis, Mo.) with or without enhancer reconstituted in deionized water were administered intraduodenally via the endoscope. Following removal of the endoscope, sedation was reversed using atipamezole (400 μg/kg). The parenteral reference solutions comprising 1 mg Leuprolide reconstituted in 0.5 ml sterile water were administered intravenously and subcutaneously respectively.

HDAC4 = HDAC4 (Homo sapiens, UniProt P56524); details: cited from earlier work
HDAC4, sequence (P56524 whole entry, species assumed): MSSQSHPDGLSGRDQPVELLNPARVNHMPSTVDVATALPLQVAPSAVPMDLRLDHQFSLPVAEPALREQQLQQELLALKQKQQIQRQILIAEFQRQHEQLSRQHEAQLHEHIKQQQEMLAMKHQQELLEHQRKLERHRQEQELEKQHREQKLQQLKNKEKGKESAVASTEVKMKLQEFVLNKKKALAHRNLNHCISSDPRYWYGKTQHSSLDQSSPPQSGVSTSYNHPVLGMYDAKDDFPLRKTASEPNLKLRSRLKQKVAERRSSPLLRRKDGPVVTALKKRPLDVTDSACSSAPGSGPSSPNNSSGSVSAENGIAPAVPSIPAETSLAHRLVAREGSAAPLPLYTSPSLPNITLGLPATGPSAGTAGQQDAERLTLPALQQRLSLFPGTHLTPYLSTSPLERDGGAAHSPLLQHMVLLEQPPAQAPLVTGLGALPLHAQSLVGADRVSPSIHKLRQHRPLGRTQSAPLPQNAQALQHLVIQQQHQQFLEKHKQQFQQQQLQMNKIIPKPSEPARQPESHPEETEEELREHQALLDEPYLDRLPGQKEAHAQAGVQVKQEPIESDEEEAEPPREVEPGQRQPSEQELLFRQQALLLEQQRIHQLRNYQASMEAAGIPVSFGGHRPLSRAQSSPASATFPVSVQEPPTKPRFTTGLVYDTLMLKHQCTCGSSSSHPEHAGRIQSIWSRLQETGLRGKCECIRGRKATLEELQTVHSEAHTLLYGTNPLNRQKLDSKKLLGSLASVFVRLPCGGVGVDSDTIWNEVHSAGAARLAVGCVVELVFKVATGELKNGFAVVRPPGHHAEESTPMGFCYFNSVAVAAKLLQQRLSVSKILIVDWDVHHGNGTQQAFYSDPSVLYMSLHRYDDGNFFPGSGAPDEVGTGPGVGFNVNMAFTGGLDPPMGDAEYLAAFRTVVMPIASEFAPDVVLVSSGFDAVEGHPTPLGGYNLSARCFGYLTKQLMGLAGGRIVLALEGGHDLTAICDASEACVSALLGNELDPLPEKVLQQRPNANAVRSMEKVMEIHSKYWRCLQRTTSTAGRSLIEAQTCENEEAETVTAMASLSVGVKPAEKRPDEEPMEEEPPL

HDAC6 = details: cited from earlier work
[8] = cited from earlier work
HDAC = details: compared to romidepsin; cited from earlier work
in vivo = assay: in vivo; parameters: species or system beagle dogs; details: beagle, dog
Description: The study was a single dose crossover study using from 2 to 5 dogs. Fasted animals were dosed weekly with an intravenous dose (reference) or one of three experimental romidepsin formulations administered directly into the duodenum via a surgically implanted cannula. In all cases the administered dose was 0.1 mg/kg body weight. Blood samples were obtained at selected time intervals post dosing and plasma was shipped to Japan Clinical Laboratories (JCL) for romidepsin analyses. Upon receipt of bioanalytical data from JCL, the individual animal plasma data were loaded into an Excel spreadsheet (Microsoft® Office Excel 2003) and the following pharmacokinetic parameters were calculated from the concentration-time data for each subject: Cmax, Tmax, T1/2, AUC(0-t) and % Bioavailability (% F). Pharmacokinetic parameters were calculated using macros written for Excel (Usansky et al., PK Functions for Microsoft Excel (1999) available at: www.boomer.org/[…].doc).

HDAC1 = HDAC1 (Homo sapiens, UniProt Q13547); details: range stated for each enzyme; cited from earlier work
HDAC1, sequence (Q13547 whole entry): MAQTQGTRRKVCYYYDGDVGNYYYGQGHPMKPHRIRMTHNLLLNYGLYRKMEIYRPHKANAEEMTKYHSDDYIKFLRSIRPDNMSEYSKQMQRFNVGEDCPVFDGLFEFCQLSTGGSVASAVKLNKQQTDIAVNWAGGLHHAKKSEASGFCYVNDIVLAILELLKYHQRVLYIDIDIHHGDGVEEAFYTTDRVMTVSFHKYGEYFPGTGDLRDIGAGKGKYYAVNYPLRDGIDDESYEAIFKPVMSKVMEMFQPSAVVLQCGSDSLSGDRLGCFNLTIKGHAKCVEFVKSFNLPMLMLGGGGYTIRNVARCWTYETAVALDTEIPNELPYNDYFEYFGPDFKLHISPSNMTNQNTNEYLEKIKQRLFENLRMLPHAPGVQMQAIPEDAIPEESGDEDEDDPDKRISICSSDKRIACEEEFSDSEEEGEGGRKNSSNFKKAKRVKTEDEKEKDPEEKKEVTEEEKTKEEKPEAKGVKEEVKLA

[9] = test system: human tumor xenografts and murine tumors; details: human tumor xenografts and murine tumors in mouse models; cited from earlier work

With `CCCCCCCCCCCC(=O)[O-].[Na+]` [Batch C12, sodium laurate] the “effect on TEER compared to the control” value (Caco-2 monolayers [1]) was “some cell damage (reduction in TEER)” and the “Papp for 3H-TRH compared to the control” value (Caco-2 monolayers [2]) was “considerable increases”.
For `CCCCCCCCCCCCCC(=O)[O-].[Na+]` [Batch C14], the “effect on TEER compared to the control” value (Caco-2 monolayers [1]) was “minimal reduction in TEER” and the “Papp for 3H-TRH compared to the control” value (Caco-2 monolayers [2]) was “considerable increases”.
With `CCCCCCCCCCCCCCCCCC(=O)[O-].[Na+]` [Batch C18] the “effect on TEER compared to the control” value (Caco-2 monolayers [1]) was “minimal reduction in TEER”.
In the case of `CCCCCCCC(=O)[O-].[Na+]` [NaC8, sodium caprylate], the “serum levels of TRH over the control TRH solution” value [3] is reported as “significantly increases the serum levels of TRH”.
For `CCCCCCCCCC(=O)[O-].[Na+]` [NaC10, sodium caprate], the “effect on TEER compared to the control” value (Caco-2 monolayers [1]) was “minimal reduction in TEER”, the “Papp for 3H-TRH compared to the control” value (Caco-2 monolayers [2]) was “considerable increases” and the “serum levels of TRH over the control TRH solution” value [3] was “significantly increases the serum levels of TRH”. The “heparin absorption by APTT response vs control heparin solution” value [4] was “significant increase in absorption”, the “anti-factor Xa activity relative to control heparin solution” value (anti-factor Xa activity [5]; enhancer 10 mg dose) was “significant increase in anti-factor Xa activity” and the “anti-factor Xa activity relative to control heparin solution” value (anti-factor Xa activity [5]; enhancer 35 mg dose) was “significant increase in anti-factor Xa activity”. For the same compound, the “anti-factor Xa response, NaC10 versus NaC8 enhancer” value (anti-factor Xa activity [6]) was “larger anti-factor Xa response”.
For `CCNC(=O)[C@@H]1CCCN1C(=O)[C@H](CCCNC(=N)N)NC(=O)[C@H](CC(C)C)NC(=O)[C@@H](CC(C)C)NC(=O)[C@H](Cc1ccc(O)cc1)NC(=O)[C@H](CO)NC(=O)[C@H](Cc1c[nH]c2ccccc12)NC(=O)[C@H](Cc1c[nH]cn1)NC(=O)[C@@H]1CCC(=O)N1` [leuprolide, leuprolide acetate], the “systemic delivery of leuprolide on coadministration with enhancer” value [7] was “considerable enhancer dose dependent enhancement” and the “systemic delivery of leuprolide without enhancer” value [7] was “negligible”.
For `C/C=C1\NC(=O)[C@@H](CS)NC(=O)[C@@H](C(C)C)NC(=O)C[C@@H](/C=C/CCS)OC(=O)[C@H](C(C)C)NC1=O` [redFK], the “inhibitory effect against HDAC4” value (HDAC4; low nanomolar concentrations) is listed as “relatively weak”, the “inhibitory effect against HDAC6” value (HDAC6; low nanomolar concentrations) is listed as “relatively weak; also recorded: almost insensitive” and the “stability in medium and serum” value [8] is listed as “rapid inactivation”. The “inhibiting in vivo HDAC activity” value (HDAC) was “less active compared to romidepsin”.
For `C/C=C1\NC(=O)[C@H]2CSSCC/C=C/[C@H](CC(=O)N[C@H](C(C)C)C(=O)N2)OC(=O)[C@H](C(C)C)NC1=O` [romidepsin, (1S,4S,10S,16E,21R)-7-[(2Z)-ethylidene]-4,2,1-diisopropyl-2-oxa-12,13-dithia-5,8,20,23-tetraazabicyclo[8.7.6]tricos-16-ene-3,6,9,19,22-pentanone], the bioavailability (in vivo) is given as ≤ 28%, the “times weaker than redFK in inhibiting HDAC1” value (HDAC1) is given as 17-23 times and the “times weaker than redFK in inhibiting HDAC4” value (HDAC4; range stated for each enzyme) is given as 17-23 times. The “times weaker than redFK in inhibiting HDAC6” value (HDAC6; range stated for each enzyme) was 17-23 times, the “stability in medium and serum” value [8] was “more stable than redFK” and the “in vivo antitumor activity” value [9] was “in vivo antitumor activity”.

Source: patent US20070292512A1, “Solid Oral Dosage Form Containing an Enhancer” (priority 2006, published 2007)
